We go through four compounds from US8211883B2, “Topical delivery of phthalocyanines” (priority 2004, dated 2012).

Data set [1] deals with Chinese hamster V79-379 lung fibroblasts. As to the kind of experiment: Clonogenic cell survival of V79 cells after photodynamic treatment. Type of data set: cell-based. As to conditions: for CF10(AIPcCI)/CF10 (Pc) / F10(AIPcCI)/F10 (Pc): 1.0 μM; for CF10(AIPcCI)/CF10 (Pc): CF10 = product of intracellular concentration and fluence reducing survival to 10%; for F10(AIPcCI)/F10 (Pc): F10 = fluence reducing cell survival to 10%. Here is the method: Cells were irradiated at a density of approximately 2×10^6 per 25 cm^2 flask. Immediately after irradiation, the cell monolayer was treated with trypsin, and appropriate aliquots were plated in triplicate to give 100 to 200 colonies in each 10-cm Petri dish. Cell survival was determined by the ability of the cells to form colonies containing at least 50 cells. The response of cells treated with 1 μM AlPcCl and light was compared in each experiment.
Photocytotoxicity of the phthalocyanines compounds I to VI was also assessed by clonogenic assay (Table 1, FIG. 1). In all experiments, 1 μM AlPcCl was included for comparison purposes. From the survival curves (FIG. 1), the fluence reducing the cell survival to 10% (F10) was obtained. The ratio of the F10 for AlPcCl and the F10 for the test compound is recorded in Table 1. Compounds I and II appear to be nearly as efficient photosensitizers as AlPcCl, while compound IV (assayed at half the concentration) was almost twice as efficient as the standard AlPcCl. […] However, in spite of the low efficiency of compound V in inhibiting cell growth, survival measurements were made for this compound, because it was taken up into V79 cells somewhat more efficiently than compounds III and VI.
In order to take differences in cellular uptake into consideration in the assessment of the relative efficiency of these phthalocyanines as photosensitizers of V79 cells, the survival data were replotted against the product of intracellular phthalocyanine concentration and light fluence (FIG. 2). From these curves, the product of intracellular concentration and light fluence reducing survival to 10% (CF10) was obtained, and comparisons of the values for AlPcCl and the test compounds are recorded in Table 1. By this and the other criteria, compound IV appears to be the most efficient photosensitizer. However, when consideration is given to the lesser cell uptake of compound V, it appears to be about as strong a photosensitizer as compound IV.
Using the cell culture methods described above, V79 cells Chinese hamster lung fibroblasts were treated with either 0.5 or 1.0 μM of the phthalocyanines listed in Table 3. About 18 hours thereafter, the cells were irradiated with increasing doses of 675 nm broad band red light from a 500 W tungsten-halogen lamp fitted with a 600 nm high pass filter, to determine the light dosage that would kill 90% of the phthalocyanine treated cells. Where 90% of the cells were not killed, the maximum percent of cells killed were determined, (expressed as % survival) and the related light dosage recorded.

Data set [2] has the same test system. As to the kind of experiment: Growth delay of V79 cultures after phthalocyanine and red light. Type of data set: cell-based. As to conditions: V79 cells; for Growth Delay (12 kj/m^2), Efficiency Relative to 1 μM (AlPcCl): 18 hours, 12 kJ/m^2 red light. The protocol: At the time of light exposure, there were approximately 1.5×10^5 cells per 25 cm^2 flask. Following irradiation, the HBSS was replaced by 10 mL of fresh complete growth medium, and the cultures were returned to the 37° C. incubator. At various times before and after irradiation, duplicate cultures were trypsinized and counted. Controls included untreated cells and cells treated with light alone or drug alone. In addition, in each experiment, the drug to be tested was compared to a standard treatment, i.e. 1 μM AlPcCl for 18 hours followed by 12 kJ/m^2 light.
The inhibition of V79 culture growth was measured during a three day period following red light irradiation (12 kJ/m^2) of phthalocyanine-pretreated cells. With each of the active compounds, as well as with AlPcCl, there was an initial decrease in cell density, as dead cells became detached from the monolayer. Thereafter, the cell number per flask increased, as living cells grew and divided. The time for the cell density to recover to the level at the time of light exposure was considered the growth delay. […] The ratio of the growth delay for the test photosensitizer and the growth delay for AlPcCl measured in the same experiment is recorded in Table 1. There was less inhibition of culture growth when cells were exposed to compounds III, V, or VI as expected from the poor cellular uptake of these drugs.

Data set [3] has as its system RIF-1 (radiation-induced fibrosarcoma) tumors. As to the kind of experiment: PDT of RIF-1 implanted tumors. As to conditions: 1 mg/kg in corn oil, 675 nm; for Tumor Responses at 24 hours: 135 J/cm^2, light 24 h after dosing; for Doubling Time of Initial Tumor Volume after PDT: 135 J/cm^2, controls 4 days. The arrangement: key to Tumor Responses at 24 hours: complete: no evidence of any tumor mass in any animal; only the scar from the photodynamic therapy was evident.; near complete: evidence of any tumor mass in four or five animals; only some tumor mass in one or two animals.; substantial: a significant tumor shrinkage occurred in all animals. In some animals the tumor response was complete, yet in others the response was not complete.; moderate: some tumor shrinkage was evident in some animals. In animals with some tumor shrinkage, scar formation was evident.; slight: some tumor decrease occurred in one or two mice. Format: in vivo, C3H/HeN mice. The protocol:
The relative effectiveness at reducing tumor volume of selected phthalocyanine compounds at a given dosage was compared in vivo. RIF-1, i.e., radiation-induced fibrosarcoma, tumors were implanted into the backs of C3H/HeN mice. One tumor was implanted per mouse. Each of the phthalocyanine compounds listed in Table 7 was sonicated and vortexed in corn oil to produce a suspension. When the tumors reached […] in diameter and 2-3 mm in thickness, each mouse received 1 mg/kg in 0.1 mL of the corn oil, of the phthalocyanine suspension. For comparison, select mice received a conventional photosensitizer; either 5 mg/kg of chloroaluminum phthalocyanine tetrasulfonate, herein also referred to as “AlPcTS” in phosphate buffered saline or 5 mg/kg of Photofrin®-II in 5% dextrose. Twenty-four hours after the photosensitizers were administered, the tumors were irradiated with visible radiation delivered by an argon-pumped dye laser. The mice that received a phthalocyanine photosensitizer received light having a wavelength of 675 nm and the mice that received the Photofrin® II photosensitizer received light having a wavelength of 630 nm. Each tumor received 135 J/cm^2 of radiation. Tumor size was measured every day using calipers. The initial tumor volume was 50±10 mm^3. Tumor volume was calculated according to the hemiellipsoid model by the formula: V=½(4π)/3×(½×(w/2))×h
• complete—no evidence of any tumor mass in any animal; only the scar from the photodynamic therapy was evident. • near complete—evidence of […] in four or five animals; only some tumor mass in one or two animals. • substantial—a significant tumor shrinkage occurred in all animals. In some animals the tumor response was complete, yet in others the response was not complete. • moderate—some tumor shrinkage was evident in some animals. In animals with some tumor shrinkage, scar formation was evident. • slight—some tumor decrease occurred in one or two mice.

The test system of data set [4] is L5178Y cells. The data set is described as follows: Induction of apoptosis (DNA ladder) in L5178Y cells after PDT. Type of data set: cell-based, Mouse. The settings on record: for C × F Ld90, Minimum Demonstrated Condition to Induce Apoptosis: product of concentration and fluence.
Data set [5] has as its system Chinese hamster V79-379 lung fibroblasts. The data set is described as follows: Uptake of phthalocyanines into V79 cells. As to conditions: for n Moles/10^6 Cells/μM (composite uptake value): average of all data, asterisk: listed value is for 1 μM, average would be higher. Here is the method:
Chinese hamster V79-379 lung fibroblasts were grown in monolayer culture in McCoy's 5A medium (Gibco Laboratories, Grand Island, N.Y.) augmented with 10% calf serum and buffered with 20 mM HEPES (pH 7.4).
Total uptake was determined by scraping the phthalocyanine-treated monolayer, collecting the cells on a glass-fiber filter, and extracting the phthalocyanine in ethanol, as previously described by Ramakrishnan, et al., 1989. (Ramakrishnan, N., M. E. Clay, M. F. Horng, A. R. Antunez, & H. H. Evans, “DNA Lesions and DNA Degradation in Mouse Lymphoma L5178Y Cells After Photodynamic Treatment Sensitized by Chloroaluminum Phthalocyanine”, Photochem. Photobiol, in press, 1989). The amount of drug was determined by absorption at 674 nm and expressed relative to the number of cells, as measured in a Coulter cell counter on an aliquot of the cell population. Controls included cells not treated with drug, medium alone, and drug-containing medium without cells.
The cells were treated with 1 μM AlPcCl (from Eastman Kodak, Rochester, N.Y.) or with phthalocyanine compositions I-VI (0.5-1.0 μM final concentration in the medium) for 18 hours by adding the appropriate volume of a 1.0 mM stock solution in dimethylformamide (DMF) to the culture medium. The growth medium was replaced with 4 mL Hank's balanced salt solution (HBSS), and the cells were irradiated. The light source was a 500 W tungsten-halogen lamp located approximately 29 inches below the surface of a glass exposure tray. The visible light administered to the cells was filtered to allow passage of only that portion of the visible spectrum above 600 nm (Lee Primary red filter No. 106, Vincent Lighting, Cleveland, Ohio). The fluence rate was approximately 0.074 kJ/m^2/s at the level of the cell monolayer.
V79 cells Chinese hamster lung fibroblasts were cultured using the cell culture methods described above. The phthalocyanines listed in table 2 were added to the cultures typically at concentrations of 1 μM, 2 μM, and/or 4 μM and incubated for 18 hours, after which aliquots of the cells were counted and other aliquots were collected on a glass fiber filter. When the filters were dry, the phthalocyanines were extracted into ethanol and the absorption determined at the peak wavelength, usually 668 nm. Values were converted to nmoles taken up by 10^6 cells, using an extinction coefficient of 2.93×10^5.

Each structure is given as a SMILES string.

Consider `CN(C)CCC[Si](C)(C)[O][Al]1[n]2c3c4ccccc4c2N=C2N=C(N=c4c5ccccc5c([n]41)=NC1=NC(=N3)c3ccccc31)c1ccccc12` [Compound I, AlPcOSi(CH3)2(CH2)3N(CH3)2], for which, in data set [1], the “CF10(AIPcCI)/CF10 (Pc)” value stood at 0.51 and the “F10(AIPcCI)/F10 (Pc)” value turned out to be 0.94. In addition, the “Growth Delay (12 kj/m^2), Efficiency Relative to 1 μM (AlPcCl)” value in data set [2] is listed as 2.1.
As for `C[Si](C)(CCCCNS(C)(=O)=O)O[Si]1(O)n2c3c4ccccc4c2N=C2N=C(N=c4c5ccccc5c(n41)=NC1=NC(=N3)c3ccccc31)c1ccccc12` (stereo not shown) [IX, HOSiPcOSi(CH3)2(CH2)4NHSO2CH3], in data set [3], the “Tumor Responses at 24 hours” value was “near complete” and the “Doubling Time of Initial Tumor Volume after PDT” value is 11 days. In addition, the “Maximum Effect (% survival at kj/m^2)” value in data set [1] (0.5 μM, at 9 kj/m^2) is given as 44% at 9. Moreover, in data set [4] (0.3 μM), the “Fluence, Minimum Demonstrated Condition to Induce Apoptosis” value (from here on “Fluence, Minimum Demonstrated Condition”) was 12.0 kJ/m^2 and the “C × F Ld90, Minimum Demonstrated Condition to Induce Apoptosis” value (“C × F Ld90” below) came out at 3.6 kJ/m^2. Also, in data set [4] (0.5 μM), the “Fluence, Minimum Demonstrated Condition” value came to 8.0 kJ/m^2 and the “C × F Ld90” value was found to be 4.0 kJ/m^2. For the same compound, in data set [4] (1.0 μM), the “Fluence, Minimum Demonstrated Condition” value is reported as 12.0 kJ/m^2 and the “C × F Ld90” value is 12.0 kJ/m^2. The “Uptake Into V79 Cells, 1 μM” value in data set [5] (1 μM, 18 hours) came out at 0.1 ± 0.1 n Moles/10^6 cells. In data set [5] (18 hours), the “Uptake Into V79 Cells, 4 μM” value was determined as 1.8 ± 0.8 n Moles/10^6 cells. The “n Moles/10^6 Cells/μM (composite uptake value)” value in data set [5] (V79 cells) is given as 0.3 n Moles/10^6 Cells/μM.
On to `[Cl][Al]1[n]2c3c4ccccc4c2N=C2N=C(N=c4c5ccccc5c([n]41)=NC1=NC(=N3)c3ccccc31)c1ccccc12` [AlPcCl, chloroaluminum phthalocyanine, reference compound], for which, in data set [1], the “CF10(AIPcCI)/CF10 (Pc)” value is given as 1.0 and the “F10(AIPcCI)/F10 (Pc)” value was 1.0. Moreover, the growth delay entry in data set [2] (1 μM for 18 hours and 12 kj/m^2 light) is listed as “approximately 24 hours”. For the same compound, in data set [2], the “Growth Delay (12 kj/m^2), Efficiency Relative to 1 μM (AlPcCl)” value worked out at 1.0. Moreover, the “Uptake, Efficiency Relative to 1 μM (AlPcCl)” value in data set [5] (V79 cells, 1.0 μM, 18 hours) worked out at 1.0. In data set [5] (V79 cells, 1 μM, mean±S. D., 25 determinations), this compound showed an uptake of 0.723±0.172 nmole/10^7 cells.
Consider `C[Si](C)(CCCCNS(C)(=O)=O)O[Si]1(O[Si](C)(C)CCCCNS(C)(=O)=O)n2c3c4ccccc4c2N=C2N=C(N=c4c5ccccc5c(n41)=NC1=NC(=N3)c3ccccc31)c1ccccc12` [Compound VIII, SiPc[OSi(CH3)2(CH2)4NHSO2CH3]2], for which, in data set [3], the “Tumor Responses at 24 hours” value was “slight” and the “Doubling Time of Initial Tumor Volume after PDT” value amounted to 4 days. Moreover, the “Maximum Effect (% survival at kj/m^2)” value in data set [1] (1 μM, at 30 kj/m^2) amounted to 94% at 30. Besides, the induction of apoptosis result in data set [4] (1 μM at a fluence of 30 kJ/m^2) is listed as “did not induce apoptosis”. For the same compound, the “Uptake Into V79 Cells, 1 μM” value in data set [5] (1 μM, 18 hours) came out at 0.1 ± 0.04 n Moles/10^6 cells. In addition, in data set [5] (18 hours), the “Uptake Into V79 Cells, 4 μM” value came to 0.8 ± 0.01 n Moles/10^6 cells. Further, the “n Moles/10^6 Cells/μM (composite uptake value)” value in data set [5] (V79 cells) turned out to be 0.2 n Moles/10^6 Cells/μM.
